Measurements as given in ChEMBL document CHEMBL1201862, “PubChem BioAssay data set” (2004).
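96-well plates; 48 h exposure; 5 concentrations. Endpoints by linear interpolation between flanking doses. Not reached: highest tested concentration assigned. GI50: concentration for 50% inhibition of growth.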 Activity calls are given as the source filed them. Rule as the data show it: active = GI50 up to about 1.1 µM and inactive = higher.

Tests used:
Assay in all cases: NCI-60 cell line screen, 48 h
UACC-257 = tested on: UACC-257
SN12C = tested on: SN12C
NCI-H522 = tested on: NCI-H522
A549 = tested on: A549
M14 = tested on: M14
SF-295 = tested on: SF-295
KM12 = tested on: KM12
SK-MEL-2 = tested on: SK-MEL-2
HT-29 = tested on: HT-29
SNB-75 = tested on: SNB-75
CAKI-1 = tested on: CAKI-1
RXF 393 = tested on: RXF 393
HCT-15 = tested on: HCT-15
NCI-H226 = tested on: NCI-H226
A498 = tested on: A498
COLO 205 = tested on: COLO 205
IGROV-1 = tested on: IGROV-1
OVCAR-8 = tested on: OVCAR-8
SW-620 = tested on: SW-620
SF-268 = tested on: SF-268
DU-145 = tested on: DU-145
MCF7 = tested on: MCF7
NCI/ADR-RES = tested on: NCI/ADR-RES
RPMI-8226 = tested on: RPMI-8226
LOX IMVI = tested on: LOX IMVI
TK-10 = tested on: TK-10
MDA-N = tested on: MDA-N
U-251 = tested on: U-251
SF-539 = tested on: SF-539
HOP-62 = tested on: HOP-62
OVCAR-3 = tested on: OVCAR-3
PC-3 = tested on: PC-3
SK-OV-3 = tested on: SK-OV-3
T47D = tested on: T47D
UACC-62 = tested on: UACC-62
MDA-MB-435 = tested on: MDA-MB-435
CCRF-CEM = tested on: CCRF-CEM
EKVX = tested on: EKVX
Hs-578T = tested on: Hs-578T
HCT-116 = tested on: HCT-116
786-0 = tested on: 786-0
Malme-3M = tested on: Malme-3M
UO-31 = tested on: UO-31
SNB-19 = tested on: SNB-19
SK-MEL-28 = tested on: SK-MEL-28
K562 = tested on: K562
OVCAR-4 = tested on: OVCAR-4
ACHN = tested on: ACHN
HOP-92 = tested on: HOP-92
SK-MEL-5 = tested on: SK-MEL-5
MOLT-4 = tested on: MOLT-4
NCI-H460 = tested on: NCI-H460
MDA-MB-231 = tested on: MDA-MB-231
OVCAR-5 = tested on: OVCAR-5
NCI-H23 = tested on: NCI-H23
BT-549 = tested on: BT-549
HL-60 = tested on: HL-60

In the case of CC(NC(=O)OCc1ccccc1)NC(=O)C(CC(=O)OC(C)(C)C)NC(=O)OC(C)(C)C (centres undefined), the GI50 (UACC-257) is reported as > 100 µM (inactive), the GI50 (SN12C) is reported as > 100 µM (inactive) and the GI50 (NCI-H522) is reported as > 100 µM (inactive). For the same molecule, the GI50 (A549) was > 100 µM (inactive), the GI50 (M14) was > 100 µM (inactive) and the GI50 (SF-295) was > 100 µM (inactive). The GI50 (KM12) was > 100 µM (inactive), the GI50 (SK-MEL-2) was > 100 µM (inactive) and the GI50 (HT-29) was > 100 µM (inactive). For the same molecule, the GI50 (SNB-75) was > 100 µM (inactive), the GI50 (CAKI-1) was > 100 µM (inactive) and the GI50 (RXF 393) was > 100 µM (inactive). For the same molecule, the GI50 (HCT-15) was greater than 100 µM, the GI50 (NCI-H226) was > 100 µM (inactive) and the GI50 (A498) was > 100 µM (inactive). For the same molecule, the GI50 (COLO 205) was > 100 µM (inactive), the GI50 (IGROV-1) was > 100 µM (inactive) and the GI50 (OVCAR-8) was > 100 µM (inactive). The GI50 (SW-620) was > 100 µM (inactive), the GI50 (SF-268) was 98.4 µM (inactive) and the GI50 (DU-145) was > 100 µM (inactive). The GI50 (MCF7) was > 100 µM (inactive), the GI50 (NCI/ADR-RES) was > 100 µM (inactive) and the GI50 (RPMI-8226) was > 100 µM (inactive). For the same molecule, the GI50 (LOX IMVI) was > 100 µM (inactive), the GI50 (TK-10) was > 100 µM (inactive) and the GI50 (MDA-N) was > 100 µM (inactive). The GI50 (U-251) was > 100 µM (inactive), the GI50 (SF-539) was > 100 µM (inactive) and the GI50 (HOP-62) was > 100 µM (inactive). For the same molecule, the GI50 (OVCAR-3) was > 100 µM (inactive), the GI50 (PC-3) was > 100 µM (inactive) and the GI50 (SK-OV-3) was > 100 µM (inactive). The GI50 (T47D) was > 100 µM (inactive), the GI50 (UACC-62) was > 100 µM (inactive) and the GI50 (MDA-MB-435) was > 100 µM (inactive). For the same molecule, the GI50 (CCRF-CEM) was > 100 µM (inactive), the GI50 (EKVX) was > 100 µM (inactive) and the GI50 (Hs-578T) was > 100 µM (inactive). For the same molecule, the GI50 (HCT-116) was > 100 µM (inactive), the GI50 (786-0) was > 100 µM (inactive) and the GI50 (Malme-3M) was > 100 µM (inactive). For the same molecule, the GI50 (UO-31) was > 100 µM (inactive), the GI50 (SNB-19) was > 100 µM (inactive) and the GI50 (SK-MEL-28) was > 100 µM (inactive). For the same molecule, the GI50 (K562) was > 100 µM (inactive), the GI50 (OVCAR-4) was > 100 µM (inactive) and the GI50 (ACHN) was > 100 µM (inactive). The GI50 (HOP-92) was > 100 µM (inactive), the GI50 (SK-MEL-5) was > 100 µM (inactive) and the GI50 (MOLT-4) was > 100 µM (inactive). For the same molecule, the GI50 (NCI-H460) was > 100 µM (inactive), the GI50 (MDA-MB-231) was > 100 µM (inactive) and the GI50 (OVCAR-5) was > 100 µM (inactive). The GI50 (NCI-H23) was > 100 µM (inactive) and the GI50 (BT-549) was > 100 µM (inactive).

In the case of CC(C)(Sc1cc(C(C)(C)C)c(O)c(C(C)(C)C)c1)Sc1cc(C(C)(C)C)c(O)c(C(C)(C)C)c1 [PROBUCOL], the GI50 (UACC-257) is reported as > 100 µM (inactive), the GI50 (SN12C) is reported as > 100 µM (inactive) and the GI50 (NCI-H522) is reported as > 100 µM (inactive). For the same molecule, the GI50 (A549) was > 100 µM (inactive), the GI50 (M14) was > 100 µM (inactive) and the GI50 (SF-295) was > 100 µM (inactive). The GI50 (KM12) was > 100 µM (inactive), the GI50 (SK-MEL-2) was > 100 µM (inactive) and the GI50 (HT-29) was > 100 µM (inactive). For the same molecule, the GI50 (SNB-75) was > 100 µM (inactive), the GI50 (CAKI-1) was > 100 µM (inactive) and the GI50 (RXF 393) was 79.6 µM (inactive). For the same molecule, the GI50 (HCT-15) was greater than 100 µM, the GI50 (A498) was > 100 µM (inactive) and the GI50 (COLO 205) was > 100 µM (inactive). The GI50 (IGROV-1) was > 100 µM (inactive), the GI50 (OVCAR-8) was > 100 µM (inactive) and the GI50 (SW-620) was > 100 µM (inactive). For the same molecule, the GI50 (SF-268) was 52.8 µM (inactive), the GI50 (DU-145) was > 100 µM (inactive) and the GI50 (MCF7) was > 100 µM (inactive). The GI50 (NCI/ADR-RES) was > 100 µM (inactive), the GI50 (RPMI-8226) was > 100 µM (inactive) and the GI50 (LOX IMVI) was > 100 µM (inactive). For the same molecule, the GI50 (TK-10) was > 100 µM (inactive), the GI50 (MDA-N) was > 100 µM (inactive) and the GI50 (U-251) was > 100 µM (inactive). The GI50 (SF-539) was > 100 µM (inactive), the GI50 (HOP-62) was > 100 µM (inactive) and the GI50 (PC-3) was > 100 µM (inactive). For the same molecule, the GI50 (SK-OV-3) was > 100 µM (inactive), the GI50 (T47D) was > 100 µM (inactive) and the GI50 (UACC-62) was > 100 µM (inactive). For the same molecule, the GI50 (MDA-MB-435) was > 100 µM (inactive), the GI50 (CCRF-CEM) was > 100 µM (inactive) and the GI50 (EKVX) was 4.57 µM (inactive). For the same molecule, the GI50 (Hs-578T) was > 100 µM (inactive), the GI50 (HCT-116) was > 100 µM (inactive) and the GI50 (786-0) was > 100 µM (inactive). For the same molecule, the GI50 (Malme-3M) was > 100 µM (inactive), the GI50 (UO-31) was > 100 µM (inactive) and the GI50 (SNB-19) was > 100 µM (inactive). The GI50 (SK-MEL-28) was > 100 µM (inactive), the GI50 (K562) was 1.81 µM (inactive) and the GI50 (OVCAR-4) was > 100 µM (inactive). For the same molecule, the GI50 (ACHN) was > 100 µM (inactive), the GI50 (SK-MEL-5) was > 100 µM (inactive) and the GI50 (NCI-H460) was > 100 µM (inactive). The GI50 (MDA-MB-231) was > 100 µM (inactive), the GI50 (OVCAR-5) was > 100 µM (inactive) and the GI50 (HL-60) was 1.49 µM (inactive). For the same molecule, the GI50 (NCI-H23) was > 100 µM (inactive) and the GI50 (BT-549) was > 100 µM (inactive).
